Measurements taken from the supplement of paper PMC8253809.

Assays:
HGGX39 [1] = paediatric high-grade glioma line; test: EC50 (inflection of fitted growth-inhibition curve) (log10 M)
How it was run: (§1)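 Patient-derived pHGG/DIPG cell lines and astrocyte controls were grown on 1% Geltrex-coated 384-well plates and exposed by pin tool to a 10-point threefold dilution series (mean top concentration 35 μM), in triplicate. Exposure was 7 days (iAstro 3 days) at 37 °C, 5% CO2. CellTiter-Glo luminescence was log2-transformed, normalised per plate to % activity between negative (solvent) and positive control wells, and pooled. EC50 and maximal response (yFin) come from the lowest-AICc three- or four-parameter log-logistic fit.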

HGGX6 [2] = H3.3 G34R paediatric high-grade glioma line; test: as above
How it was run: as §1

HGGX39 [3] = test: maximal growth inhibition (yFin) relative to DMSO / staurosporine; higher = more efficacious
How it was run: as §1

HGGX6 [4] = test: as above
How it was run: as §1

DIPGX29 = H3.3 K27M diffuse intrinsic pontine glioma line; test: area under dose-response curve of % growth inhibition (log2 RLU vs DMSO / staurosporine), 1e-11 to 1e-4 M (% x log10 M); higher = more growth inhibition
How it was run: (§2)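 On 1% Geltrex-coated 384-well plates, patient-derived pHGG/DIPG cell lines and astrocytes were treated in triplicate across 10 threefold dilutions (mean top concentration 35 μM) for 7 days, with iAstro treated for 3 days, at 37 °C, 5% CO2. Log2-transformed CellTiter-Glo luminescence was normalised per plate to % activity between solvent and positive controls. Area under the curve was obtained by the trapezoid rule from a log-logistic fit, or from a smoothing spline when that fit failed.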

DIPGX37 [5] = H3.3 K27M diffuse intrinsic pontine glioma line; test: as above
How it was run: as §2

HGGX39 [6] = test: as above
How it was run: as §2

HGGX6 [7] = test: as above
How it was run: as §2

DIPGX37 [8] = test: EC50 (inflection of fitted growth-inhibition curve) (log10 M)
How it was run: as §1

DIPGX37 [9] = test: maximal growth inhibition (yFin) relative to DMSO / staurosporine; higher = more efficacious
How it was run: as §1

Row | Structure (SMILES) | EC50 (log10 M) (HGGX39 [1]) | EC50 (log10 M) (HGGX6 [2]) | maximal growth inhibition (HGGX39 [3]) [%] | maximal growth inhibition (HGGX6 [4]) [%] | area under dose-response curve (DIPGX29) | area under dose-response curve (DIPGX37 [5]) | area under dose-response curve (HGGX39 [6]) | area under dose-response curve (HGGX6 [7]) | EC50 (log10 M) (DIPGX37 [8]) | maximal growth inhibition (DIPGX37 [9]) [%]
1 | Cc1ccc(C(=O)Nc2ccc(Oc3cc4cnn(C)c4cc3-c3cn[nH]c3)c(F)c2)c(=O)n1-c1ccc(F)cc1 | -5.27 | -5.1 | 20.9 | 25.3 | 22.4 | 16.1 | 28.1 | 41.1 |  | 
2 | Nc1nccc(-c2c(-c3ccc(F)cc3)ncn2C2CCCCC2)n1 |  | -4.94 |  | 21 | 16.4 | 21.5 | 21.3 | 31.7 |  | 
3 | CC(=O)OC12COC1CC(O)C1(C)C(=O)C(O)C3=C(C)C(O)CC(O)(C(OC(=O)c4ccccc4)C21)C3(C)C (stereo not drawn) [10-DEACETYLBACCATIN-III] | -5.19 |  | 39.6 |  | 13.6 | 28.9 | 47.3 | 14.9 | -4.92 | 31.4
4 | Clc1cc2c(NC3CCCC3)nnc(-c3ccncc3)c2cc1Cl [A-196] |  |  |  |  | 2.12 | 18.8 | 2.32 | 3.18 | -4.53 | 23.4
5 | COc1cc(Nc2ncc3c(n2)-c2ccc(Cl)cc2C(c2c(F)cccc2OC)=NC3)ccc1C(=O)O [ALISERTIB] | -4.99 | -5.31 | 39.1 | 24.7 | 52.1 | 66.4 | 69.3 | 49.8 |  | 
6 | C[C@@H]1CC[C@H]2[C@@H](C)C(=O)O[C@@H]3O[C@@]4(C)CC[C@@H]1[C@]32OO4 [ARTEMISININ] | -5.38 |  | 29.7 |  | 19.7 | 42.5 | 36.8 | 20.9 | -5.3 | 32.7
7 | Cc1c(N)nc([C@H](CC(N)=O)NC[C@H](N)C(N)=O)nc1C(=O)N[C@H](C(=O)N[C@H](C)[C@@H](O)[C@H](C)C(=O)N[C@H](C(=O)NCCc1nc(-c2nc(C(=O)NCCC[S+](C)C)cs2)cs1)[C@@H](C)O)[C@@H](OC1OC(CO)C(O)C(O)C1OC1OC(CO)C(O)C(OC(N)=O)C1O)c1cnc[nH]1 (stereo partly drawn) [BLEOMYCIN] |  |  |  |  | 22.6 | 40.4 | 19.5 | 6.9 | -5.22 | 24.8
8 | C/C=C(\C)C(=O)N[C@@H](c1ccccc1)[C@@H](O)C(=O)O[C@H]1C[C@@]2(O)[C@@H](OC(=O)c3ccccc3)[C@@H]3[C@]4(OC(C)=O)CO[C@@H]4C[C@H](O)[C@@]3(C)C(=O)[C@H](OC(C)=O)C(=C1C)C2(C)C [CEPHALOMANNINE] | -7.73 |  | 48.4 |  | 46.7 | 101 | 180 | 54.1 | -7.58 | 28.2
9 | Cc1sc2c(c1C)C(c1ccc(Cl)cc1)=N[C@@H](CC(N)=O)c1nnc(C)n1-2 [CPI-203] |  |  |  |  | 26.8 | 62.1 | 47.1 | 35.8 | -6.88 | 22.3
10 | CCc1c2c(nc3ccc(OC(=O)N4CCC(N5CCCCC5)CC4)cc13)-c1cc3c(c(=O)n1C2)COC(=O)[C@]3(O)CC [IRINOTECAN] | -5.98 |  | 53.2 |  | 52.4 | 56.4 | 107 | 25.9 | -7.09 | 20.5
11 | CCC(C)n1ncn(-c2ccc(N3CCN(c4ccc(OCC5COC(Cn6cncn6)(c6ccc(Cl)cc6Cl)O5)cc4)CC3)cc2)c1=O (stereo not drawn) [ITRACONAZOLE] |  |  |  |  | 20 | 56.7 | 28.4 | 29.7 | -4.91 | 62.3
12 | N[C@@H](Cc1cc(I)c(Oc2ccc(O)c(I)c2)c(I)c1)C(=O)O [LIOTHYRONINE] | -5.95 |  | 26.4 |  | 31.4 | 62.2 | 51.4 | 11.9 | -5.69 | 26.5
13 | Cc1cc(=O)n(C)c2cc(N3C(=O)CC[C@H](NS(=O)(=O)CC(C)C)[C@H]3c3ccc(Cl)cc3)ccc12 [LP-99] |  | -4.95 |  | 22.4 | 12.9 | 10.2 | 11.5 | 21.2 |  | 
14 | CC[C@H](C)C(=O)O[C@H]1CCC=C2C=C[C@H](C)[C@H](CC[C@@H]3C[C@@H](O)CC(=O)O3)[C@H]21 [MEVASTATIN] | -4.97 |  | 57.7 |  | 32.6 | 41.4 | 56.7 | 23.3 | -5.53 | 20.8
15 | O=C1c2c(O)ccc(O)c2C(=O)c2c(NCCNCCO)ccc(NCCNCCO)c21 [MITOXANTHRONE] |  |  |  |  | 116 | 104 | 116 | 112 | -4.79 | 81.9
16 | COc1ccc(C2CC(c3ccccc3)=NN2c2ccc(S(N)(=O)=O)cc2)cc1 (stereo not drawn) [ML141] | -4.54 |  | 38.3 |  | 26.6 | 33.4 | 20 | 33.7 |  | 
17 | Cc1sc2c(c1C)C(c1ccc(Cl)cc1)=N[C@@H](CC(=O)Nc1ccc(O)cc1)c1nnc(C)n1-2 [OTX015] | -5.11 |  | 50.6 |  | 30.3 | 80 | 53.1 | 33.7 | -6.7 | 29.5
18 | CC(=O)O[C@H]1C(=O)[C@@]2(C)[C@H]([C@H](OC(=O)c3ccccc3)[C@]3(O)C[C@H](OC(=O)[C@H](O)[C@@H](NC(=O)c4ccccc4)c4ccccc4)C(C)=C1C3(C)C)[C@]1(OC(C)=O)CO[C@@H]1C[C@@H]2O [PACLITAXEL] | -8.21 |  | 42.5 |  | 42.1 | 99.3 | 179 | 55.2 | -8.09 | 24.3
